{"source": "patent US20230093099A1", "about": "“COMPOUNDS AND METHODS OF TREATING CANCERS” (CULLGEN (SHANGHAI), INC., priority 2019, published 2023)"}
{"tested_on": "RS4;11 cells", "assay": "Cell viability assay (CellTiter-Glo) in RS4;11 cells", "type": "cell-based", "settings": "Homo sapiens, 72 h; RS4;11 cells; cell viability, 3 days, CellTiter-Glo; read-out: IC50", "method": "Specific exemplary heterobifunctional compounds were first characterized using cell viability assays. RS4;11 ALL cells were treated with bifunctional degraders for three days. The IC50 values ranged from 2 nM to over 10 uM.\nMV4;11, RS4;11, Kasumi-1, HEL and other cells were treated with NVP-BSK805, TG101209 or selected degraders for 3 days at indicated concentrations following a 3-fold serial dilution.\nHEL, RS4;11, MV4;11, Kasumi-1 and other cells were cultured at 37° C. with 5% CO2 in RPMI 1640 or DMEM Medium supplemented with 10% fetal bovine serum. Cells were authenticated using the short tandem repeat (STR) assays. Mycoplasma test results were negative.\nCells were seeded at a density of 5000 cells per well in 96-well assay plates and treated with test compounds following a 8-point or 12-point 3-fold serial dilution. Three days later, cell viability was determined using the CellTiter-Glo assay kit according to the manufacturer's instructions. The dose-response curves were determined and IC50 values were calculated using the GraphPad Prism software following a nonlinear regression (least squares fit) method.", "units": {"IC50": "µM"}}
{"smiles": "Cc1cnc(Nc2ccc(N3CCN(C(=O)COCCOCC(=O)N[C@H](C(=O)N4C[C@H](O)C[C@H]4C(=O)NCc4ccc(-c5scnc5C)cc4)C(C)(C)C)CC3)cc2)nc1Nc1cccc(S(=O)(=O)NC(C)(C)C)c1", "note": "[JA-032, (2S,4R)-1-((S)-2-(2-(2-(2-(4-(4-((4-((3-(N-(tert-Butyl)sulfamoyl)phenyl)amino)-5-methylpyrimidin-2-yl)amino)phenyl)piperazin-1-yl)-2-oxoethoxy)ethoxy)acetamido)-3,3-dimethylbutanoyl)-4-hydroxy-N-(4-(4-methylthiazol-5-yl)benzyl)pyrrolidine-2-carboxamide]", "IC50": "> 10"}
{"smiles": "Cc1cnc(Nc2ccc(N3CCN(C(=O)CCOCCOCCC(=O)N[C@H](C(=O)N4C[C@H](O)C[C@H]4C(=O)NCc4ccc(-c5scnc5C)cc4)C(C)(C)C)CC3)cc2)nc1Nc1cccc(S(=O)(=O)NC(C)(C)C)c1", "note": "[JA-033, (2S,4R)-1-((S)-2-(3-(2-(3-(4-(4-((4-((3-(N-(tert-Butyl)sulfamoyl)phenyl)amino)-5-methylpyrimidin-2-yl)amino)phenyl)piperazin-1-yl)-3-oxopropoxy)ethoxy)propanamido)-3,3-dimethylbutanoyl)-4-hydroxy-N-(4-(4-methylthiazol-5-yl)benzyl)pyrrolidine-2-carboxamide]", "IC50": "> 10"}
{"smiles": "Cc1cnc(Nc2ccc(N3CCN(C(=O)CCOCCOCCOCCC(=O)N[C@H](C(=O)N4C[C@H](O)C[C@H]4C(=O)NCc4ccc(-c5scnc5C)cc4)C(C)(C)C)CC3)cc2)nc1Nc1cccc(S(=O)(=O)NC(C)(C)C)c1", "note": "[JA-034, (2S,4R)-1-((S)-2-(tert-Butyl)-16-(4-(4-((4-((3-(N-(tert-butyl)sulfamoyl)phenyl)amino)-5-methylpyrimidin-2-yl)amino)phenyl)piperazin-1-yl)-4,16-dioxo-7,10,13-trioxa-3-azahexadecanoyl)-4-hydroxy-N-(4-(4-methylthiazol-5-yl)benzyl)pyrrolidine-2-carboxamide]", "IC50": "> 10"}
{"smiles": "Cc1cnc(Nc2ccc(N3CCN(C(=O)CCOCCOCCOCCOCCC(=O)N[C@H](C(=O)N4C[C@H](O)C[C@H]4C(=O)NCc4ccc(-c5scnc5C)cc4)C(C)(C)C)CC3)cc2)nc1Nc1cccc(S(=O)(=O)NC(C)(C)C)c1", "note": "[JA-035, (2S,4R)-1-((S)-2-(tert-Butyl)-19-(4-(4-((4-((3-(N-(tert-butyl)sulfamoyl)phenyl)amino)-5-methylpyrimidin-2-yl)amino)phenyl)piperazin-1-yl)-4,19-dioxo-7,10,13,16-tetraoxa-3-azanonadecanoyl)-4-hydroxy-N-(4-(4-methylthiazol-5-yl)benzyl)pyrrolidine-2-carboxamide]", "IC50": "> 10"}
{"smiles": "Cc1cnc(Nc2ccc(N3CCN(C(=O)COCCOCCOCCOCCOCC(=O)N[C@H](C(=O)N4C[C@H](O)C[C@H]4C(=O)NCc4ccc(-c5scnc5C)cc4)C(C)(C)C)CC3)cc2)nc1Nc1cccc(S(=O)(=O)NC(C)(C)C)c1", "note": "[JA-036, (2S,4R)-1-((S)-2-(tert-Butyl)-20-(4-(4-((4-((3-(N-(tert-butyl)sulfamoyl)phenyl)amino)-5-methylpyrimidin-2-yl)amino)phenyl)piperazin-1-yl)-4,20-dioxo-6,9,12,15,18-pentaoxa-3-azaicosanoyl)-4-hydroxy-N-(4-(4-methylthiazol-5-yl)benzyl)pyrrolidine-2-carboxamide]", "IC50": "> 10"}
{"smiles": "Cc1cnc(Nc2ccc(N3CCN(C(=O)CCOCCOCCOCCOCCOCCC(=O)N[C@H](C(=O)N4C[C@H](O)C[C@H]4C(=O)NCc4ccc(-c5scnc5C)cc4)C(C)(C)C)CC3)cc2)nc1Nc1cccc(S(=O)(=O)NC(C)(C)C)c1", "note": "[JA-037, (2S,4R)-1-((S)-2-(tert-Butyl)-22-(4-(4-((4-((3-(N-(tert-butyl)sulfamoyl)phenyl)amino)-5-methylpyrimidin-2-yl)amino)phenyl)piperazin-1-yl)-4,22-dioxo-7,10,13,16,19-pentaoxa-3-azadocosanoyl)-4-hydroxy-N-(4-(4-methylthiazol-5-yl)benzyl)pyrrolidine-2-carboxamide]", "IC50": "> 10"}
{"smiles": "O=C1CCC(N2C(=O)c3cccc(NCCCCCCCC(=O)N4CCC(n5cc(-c6cnc7cccc(-c8cc(F)c(CN9CCOCC9)c(F)c8)c7n6)cn5)CC4)c3C2=O)C(=O)N1", "note": "(stereo not shown) [JA-038, 4-[[8-[4-[4-[8-[3,5-Difluoro-4-(morpholinomethyl)phenyl]quinoxalin-2-yl]pyrazol-1-yl]-1-piperidyl]-8-oxo-octyl]amino]-2-(2,6-dioxo-3-piperidyl)isoindoline-1,3-dione]", "IC50": "> 10"}
{"smiles": "O=C1CCC(N2C(=O)c3cccc(NCCOCCOCCC(=O)N4CCC(n5cc(-c6cnc7cccc(-c8cc(F)c(CN9CCOCC9)c(F)c8)c7n6)cn5)CC4)c3C2=O)C(=O)N1", "note": "(stereo not shown) [JA-039, 4-[2-[2-[3-[4-[4-[8-[3,5-Difluoro-4-(morpholinomethyl)phenyl]quinoxalin-2-yl]pyrazol-1-yl]-1-piperidyl]-3-oxo-propoxy]ethoxy]ethylamino]-2-(2,6-dioxo-3-piperidyl)isoindoline-1,3-dione]", "IC50": "> 10"}
{"smiles": "O=C1CCC(N2C(=O)c3cccc(NCCCCCCC(=O)N4CCC(n5cc(-c6cnc7cccc(-c8cc(F)c(CN9CCOCC9)c(F)c8)c7n6)cn5)CC4)c3C2=O)C(=O)N1", "note": "(stereo not shown) [JA-040, 4-[[7-[4-[4-[8-[3,5-Difluoro-4-(morpholinomethyl)phenyl]quinoxalin-2-yl]pyrazol-1-yl]-1-piperidyl]-7-oxo-heptyl]amino]-2-(2,6-dioxo-3-piperidyl)isoindoline-1,3-dione]", "IC50": "> 10"}
{"smiles": "Cc1ncsc1-c1ccc(CNC(=O)[C@@H]2C[C@@H](O)CN2C(=O)[C@@H](NC(=O)CCCCC(=O)N2CCC(n3cc(-c4cnc5cccc(-c6cc(F)c(CN7CCOCC7)c(F)c6)c5n4)cn3)CC2)C(C)(C)C)cc1", "note": "[JA-041, (2S,4R)-1-[(2S)-2-[[6-[4-[4-[8-[3,5-Difluoro-4-(morpholinomethyl)phenyl]quinoxalin-2-yl]pyrazol-1-yl]-1-piperidyl]-6-oxo-hexanoyl]amino]-3,3-dimethyl-butanoyl]-4-hydroxy-N-[[4-(4-methylthiazol-5-yl)phenyl]methyl]pyrrolidine-2-carboxamide]", "IC50": "> 10"}
{"smiles": "Cc1ncsc1-c1ccc(CNC(=O)[C@@H]2C[C@@H](O)CN2C(=O)[C@@H](NC(=O)CCCCCCCCC(=O)N2CCC(n3cc(-c4cnc5cccc(-c6cc(F)c(CN7CCOCC7)c(F)c6)c5n4)cn3)CC2)C(C)(C)C)cc1", "note": "[JA-042, (2S,4R)-1-[(2S)-2-[[10-[4-[4-[8-[3,5-Difluoro-4-(morpholinomethyl)phenyl]quinoxalin-2-yl]pyrazol-1-yl]-1-piperidyl]-10-oxo-decanoyl]amino]-3,3-dimethyl-butanoyl]-4-hydroxy-N-[[4-(4-methylthiazol-5-yl)phenyl]methyl]pyrrolidine-2-carboxamide]", "IC50": "> 10"}
{"smiles": "O=C1CCC(N2C(=O)c3cccc(NCCOCCOCCOCCOCCOCCC(=O)N4CCC(n5cc(-c6cnc7cccc(-c8cc(F)c(CN9CCOCC9)c(F)c8)c7n6)cn5)CC4)c3C2=O)C(=O)N1", "note": "(stereo not shown) [JA-043, 4-[2-[2-[2-[2-[2-[3-[4-[4-[8-[3,5-Difluoro-4-(morpholinomethyl)phenyl]quinoxalin-2-yl]pyrazol-1-yl]-1-piperidyl]-3-oxo-propoxy]ethoxy]ethoxy]ethoxy]ethoxy]ethylamino]-2-(2,6-dioxo-3-piperidyl)isoindoline-1,3-dione]", "IC50": 7.54}
{"smiles": "Cc1ncsc1-c1ccc(CNC(=O)[C@@H]2C[C@@H](O)CN2C(=O)[C@@H](NC(=O)CCOCCOCCOCCOCCOCCC(=O)N2CCC(n3cc(-c4cnc5cccc(-c6cc(F)c(CN7CCOCC7)c(F)c6)c5n4)cn3)CC2)C(C)(C)C)cc1", "note": "[JA-044, (2S,4R)-1-[(2S)-2-[3-[2-[2-[2-[2-[3-[4-[4-[8-[3,5-Difluoro-4-(morpholinomethyl)phenyl]quinoxalin-2-yl]pyrazol-1-yl]-1-piperidyl]-3-oxo-propoxy]ethoxy]ethoxy]ethoxy]ethoxy]propanoylamino]-3,3-dimethyl-butanoyl]-4-hydroxy-N-[[4-(4-methylthiazol-5-yl)phenyl]methyl]pyrrolidine-2-carboxamide]", "IC50": "> 10"}
{"smiles": "O=C1CCC(N2C(=O)c3cccc(NCCOCCC(=O)N4CCC(n5cc(-c6cnc7cccc(-c8cc(F)c(CN9CCOCC9)c(F)c8)c7n6)cn5)CC4)c3C2=O)C(=O)N1", "note": "(stereo not shown) [JA-045, 4-[2-[3-[4-[4-[8-[3,5-Difluoro-4-(morpholinomethyl)phenyl]quinoxalin-2-yl]pyrazol-1-yl]-1-piperidyl]-3-oxo-propoxy]ethylamino]-2-(2,6-dioxo-3-piperidyl)isoindoline-1,3-dione]", "IC50": 1.26}
{"smiles": "Cc1ncsc1-c1ccc(CNC(=O)[C@@H]2C[C@@H](O)CN2C(=O)[C@@H](NC(=O)CCCC(=O)N2CCC(n3cc(-c4cnc5cccc(-c6cc(F)c(CN7CCOCC7)c(F)c6)c5n4)cn3)CC2)C(C)(C)C)cc1", "note": "[JA-046, (2S,4R)-1-[(2S)-2-[[5-[4-[4-[8-[3,5-Difluoro-4-(morpholinomethyl)phenyl]quinoxalin-2-yl]pyrazol-1-yl]-1-piperidyl]-5-oxo-pentanoyl]amino]-3,3-dimethyl-butanoyl]-4-hydroxy-N-[[4-(4-methylthiazol-5-yl)phenyl]methyl]pyrrolidine-2-carboxamide]", "IC50": "> 10"}
{"smiles": "O=C1CCC(N2C(=O)c3cccc(NCCOCCOCCOCCOCCC(=O)N4CCC(n5cc(-c6cnc7cccc(-c8cc(F)c(CN9CCOCC9)c(F)c8)c7n6)cn5)CC4)c3C2=O)C(=O)N1", "note": "(stereo not shown) [JA-047, 4-[2-[2-[2-[2-[3-[4-[4-[8-[3,5-Difluoro-4-(morpholinomethyl)phenyl]quinoxalin-2-yl]pyrazol-1-yl]-1-piperidyl]-3-oxo-propoxy]ethoxy]ethoxy]ethoxy]ethylamino]-2-(2,6-dioxo-3-piperidyl)isoindoline-1,3-dione]", "IC50": 3.44}
